Data: patent US20060199736A1, “Environmentally benign bioactive formulation” (priority 2002, published 2006)

Key:
[1] = cited from earlier work
[2] = pH study of dilute solutions of VertecBio solvents in water; type: physicochemical
Procedure: The Citrus and Gold blends were made of 80% Ethyl lactate and 20% d-limonene and methyl soyate respectively. The pH was measured at various intervals and was recorded.
(§1) The initial pH of the water was approximately 7.80 pH units.

[3] = pH study of dilute solutions of VertecBio solvents with neem oil containing azadirachtin; type: physicochemical; conditions: solvent mixed with 3% (w/w) neem oil
Procedure: The biosolvents were mixed with 3% (w/w) neem oil containing the natural pesticide azadirachtin. These were diluted in water at one, two, and three percent concentrations. The Citrus™ and Gold™ blends were made of 80% ethyl lactate and 20% d-limonene and methyl soyate, respectively, as described above. […] The initial pH of the water was 7.80 pH units.

[4] = pH study of dilute solutions of VertecBio solvents with dichlorvos; type: physicochemical; conditions: solvent containing 1% dichlorvos
Procedure: In this example, the pH of a dilute solution of an organophosphate pesticide is tracked over time. The dilution into water is done without any surfactants.
The biosolvents were diluted in water at one, two, and three percent concentrations. The solvents, before being diluted, contained 1% dichlorvos. The VertecBio Citrus™ and Gold™ blends were made of 80% ethyl lactate and 20% d-limonene and methyl soyate respectively.
as §1

SMILES: CCOP(=S)(OCC)Oc1nc(Cl)c(Cl)cc1Cl [Dursban, chlorpyrofos]
- ½ Life at pH 5.0 [1]: 63 days
- ½ Life at pH 7.0 [1]: 35 days
- ½ Life at pH 8.0 [1]: 1.5 days

SMILES: CNC(=O)CSP(=S)(OC)OC [Cygon, dimethoate]
- ½ Life at pH 6.0 [1]: 12 hr
- ½ Life at pH 9.0 [1]: 48 min

SMILES: COP(=S)(OC)SCN1C(=O)c2ccccc2C1=O [Imidan, phosmet]
- ½ Life at pH 5.0 [1]: 7 days
- ½ Life at pH 7.0 [1]: 12 hr
- ½ Life at pH 8.0 [1]: 4 hr

SMILES: CNC(=O)Oc1cccc2ccccc12 [Sevin, carbaryl]
- ½ Life at pH 7.0 [1]: 10 days
- ½ Life at pH 9.0 [1]: 24 hr

SMILES: O=C1C2CC=CCC2C(=O)N1SC(Cl)(Cl)Cl (stereo not drawn) [Captan, captan]
- ½ Life at pH 5.0 [1]: 10 hr
- ½ Life at pH 7.0 [1]: 3 hr
- ½ Life at pH 8.0 [1]: 10 min
- ½ Life at pH 9.0 [1]: 2 min

SMILES: CCOC(=O)C(C)O (stereo not drawn) [Ethyl Lactate, ethyl lactate]
- pH of dilute solution ([2]; 1% in water, 2 hours): 7.25
- pH of dilute solution ([2]; 1% in water, 4 hours): 7.10
- pH of dilute solution ([2]; 1% in water, 6 hours): 6.95
- pH of dilute solution ([2]; 1% in water, 8 hours): 7.11
- pH of dilute solution ([2]; 1% in water, 24 hours): 6.78
- pH of dilute solution ([2]; 1% in water, 48 hours): 6.75
- pH of dilute solution ([2]; 1% in water, 72 hours): 6.56
- pH of dilute solution ([2]; 1% in water, Initial): 7.75
- pH of dilute solution ([2]; 2% in water, 2 hours): 7.14
- pH of dilute solution ([2]; 2% in water, 4 hours): 7.00
- pH of dilute solution ([2]; 2% in water, 6 hours): 6.90
- pH of dilute solution ([2]; 2% in water, 8 hours): 6.90
- pH of dilute solution ([2]; 2% in water, 24 hours): 6.56
- pH of dilute solution ([2]; 2% in water, 48 hours): 6.43
- pH of dilute solution ([2]; 2% in water, 72 hours): 5.88
- pH of dilute solution ([2]; 2% in water, Initial): 7.65
- pH of dilute solution ([2]; 3% in water, 2 hours): 7.01
- pH of dilute solution ([2]; 3% in water, 4 hours): 6.90
- pH of dilute solution ([2]; 3% in water, 6 hours): 6.78
- pH of dilute solution ([2]; 3% in water, 8 hours): 6.79
- pH of dilute solution ([2]; 3% in water, 24 hours): 6.47
- pH of dilute solution ([2]; 3% in water, 48 hours): 5.93
- pH of dilute solution ([2]; 3% in water, 72 hours): 5.47
- pH of dilute solution ([2]; 3% in water, Initial): 7.54
- pH of dilute solution ([3]; 1% in water, 4 hours): 7.43
- pH of dilute solution ([3]; 1% in water, 24 hours): 6.77
- pH of dilute solution ([3]; 1% in water, 48 hours): 6.94
- pH of dilute solution ([3]; 1% in water, 72 hours): 6.39
- pH of dilute solution ([3]; 1% in water, Initial): 7.59
- pH of dilute solution ([3]; 2% in water, 48 hours): 6.74
- pH of dilute solution ([3]; 2% in water, 72 hours): 6.02
- pH of dilute solution ([3]; 2% in water, Initial): 7.41
- pH of dilute solution ([3]; 3% in water, 24 hours): 6.68
- pH of dilute solution ([3]; 3% in water, 48 hours): 6.61
- pH of dilute solution ([3]; 3% in water, 72 hours): 5.78
- pH of dilute solution ([3]; 3% in water, Initial): 7.31
- pH of dilute solution ([4]; 1% in water, 4 hours): 7.3
- pH of dilute solution ([4]; 1% in water, 24 hours): 7.15
- pH of dilute solution ([4]; 1% in water, 48 hours): 7.08
- pH of dilute solution ([4]; 1% in water, 72 hours): 6.89
- pH of dilute solution ([4]; 1% in water, Initial): 7.72
- pH of dilute solution ([4]; 2% in water, 24 hours): 6.92
- pH of dilute solution ([4]; 2% in water, 48 hours): 6.55
- pH of dilute solution ([4]; 2% in water, 72 hours): 6.04
- pH of dilute solution ([4]; 2% in water, Initial): 7.5
- pH of dilute solution ([4]; 3% in water, 4 hours): 6.97
- pH of dilute solution ([4]; 3% in water, 24 hours): 6.6
- pH of dilute solution ([4]; 3% in water, 48 hours): 6.28
- pH of dilute solution ([4]; 3% in water, 72 hours): 5.45
- pH of dilute solution ([4]; 3% in water, Initial): 7.51

SMILES: CCCCNC(=O)n1c(NC(=O)OC)nc2ccccc21 [Benlate, benomyl]
- ½ Life at pH 5.0 [1]: 30 hr
- ½ Life at pH 7.0 [1]: 1 hr

SMILES: CCOC(=O)CC(SP(=S)(OC)OC)C(=O)OCC (stereo not drawn) [Malathion, malathion]
- ½ Life at pH 6.0 [1]: 8 days
- ½ Life at pH 7.0 [1]: 3 days
- ½ Life at pH 8.0 [1]: 19 hr
- ½ Life at pH 9.0 [1]: 5 hr

SMILES: COP(=S)(OC)SCn1nnc2ccccc2c1=O [Guthion, azin-phos methyl]
- ½ Life at pH 5.0 [1]: 60 hr
- ½ Life at pH 9.0 [1]: 12 hr
